Test results reported in patent publication US20080305092A1, “Methods of treating autoimmune disease via CTLA-4IG” (THE REGENTS OF THE UNIVERSITY OF MICHIGAN, priority 1993, published 2008).

Assays:
[1] = system: CD28-stimulated IL-2 production of T cells; assay: CD28-stimulated IL-2 production with or without herbimycin A, bioassay; conditions: for IL-2: cells cultured in the single agent only, 24 h
Procedure: Cells. The CD28^+ subset of T cells was isolated from peripheral blood T lymphocytes by negative selection using immunoabsorption with goat anti-mouse Ig-coated magnetic particles as previously described in June, C. […] In some instances, T cells or Jurkat cells were cultured in complete media, or in complete media with 5 ng/ml PMA (Sigma Chemical Co., St. Louis, Mo.) or OKT3 beads (±5 beads/cell) before experiments.
To address the potential role of tyrosine kinases in CD28-triggered signaling, the effect of herbimycin A, an inhibitor of the src family protein tyrosine kinases (see Uehara, Y. et al., Biochem. Biophys. Res. Commun., 163:803 (1989)), on the CD28-triggered enhancement of IL-2 production was investigated. T cells were cultured overnight in the absence (depicted as open bars in FIG. 15) or presence (depicted as filled bars in FIG. 15) of herbimycin A (1 μM). […] Cell-free supernatant was collected, dialized to remove herbimycin A and serial dilutions were analyzed for IL-2 content by bioassay as described in June, J. Immunol., supra (1989).

[2] = system: CD28-induced tyrosine phosphorylation; assay: Anti-phosphotyrosine immunoblot of PMA-treated T cells; format: cell-based, human; conditions: T cells treated overnight with PMA 5 ng/ml and herbimycin A
Procedure: Immunoblot analysis of protein tyrosine phosphorylation. Details of the immunoblot assay with anti-phosphotyrosine antibodies has been described in Hsi, E. D. et al., J. Biol. Chem., 264:10836 (1989) and June, C. H. et al., J. Immunol., 144:1591 (1990). Cells were suspended at 5−10×10^7 cells/ml in reaction media, i.e., HBSS containing 0.8% FCS and 20 Mm Hepes at 37° C. at time—3 m and stimulated at time 0 m. mAbs were used at 10 μg/ml final concentration. For crosslinking, biotinylated mAbs were incubated with cells for 5-8 m at room temperature, the cells prewarmed at time 3 min and stimulated with avidin (Sigma Chemical Co.) at a final concentration of 40 μg/ml at time 0. Stimulation was terminated by the addition of ice-cold 10× lysis buffer, yielding a final concentration of 0.5% Triton X-100. See June, J. Immunol., supra (1990).
CD28-induced tyrosine phosphorylation prevented by CD45 and by herbimycin. […] T cells were treated overnight with PMA (5 ng/ml) in the presence of the indicated concentration of herbimycin A or in control medium. […] Detergent-soluble proteins were processed as previously described.
To address the effects of phosphatases on CD28-mediated signal transduction, T cells were cultured overnight with PMA (5 ng/ml). […] Monoclonal antibodies were crosslinked with avidin at time 0. The reaction was terminated after 2 m. […]

CD28^+ T cells [3] = assay: T cell proliferation (3H-thymidine) in the presence of cyclosporine or dexamethasone; format: cell-based, human
Procedure: T cells, enriched by nylon wool filtration as described by Julius, et al., Euro. […] The above combinations also included […] titrations (from 25 ng/ml to 1.6 μg/ml) of cyclosporine (CSP) (Sandoz, Hanover, N.J.) dissolved in ethanol-Tween 80 as described by Wiesinger, et al., Immunobiol., 156:454-463 (1979).
^3H-thymidine incorporation was measured on day 3 of culture and the results representative of eight independent experiments are depicted in FIG. 3. […] Table 6 below illustrates the effects of cyclosporine on CD3-induced proliferation of CD28^+ T cells cultured at approximately 5×10^4 cells/well in flat-bottomed 96-well microtiter plates (CoStar, Cambridge, Mass.) under the following conditions: immobilized Mab G19-4; or immobilized mAb G19-4 and mAb 9.30 100 ng/ml; or immobilized mAb G19-4 and PMA 1 ng/ml; or Mab 9.3 100 ng/ml and PMA 1 ng/ml. Cyclosporine was prepared as above and included in the cultures at 0, 0.2, 0.4, 0.8, 1.2 μg/ml.
^3H-thymidine incorporation was determined on day 3 of culture as above. […] CD28^+ T cells cultured in the absence of cyclosporine were given cyclosporine diluent. ^3H-thymidine incorporation of cells cultured in medium, or PMA, or monoclonal antibody 9.3 only were less than 150 cpm.

CD28^+ T cells [4] = assay: IL-4, IL-5, IFN and IL-2 in supernatants by ELISA, initial stimulation and restimulation
Procedure: Supernatants from the cell culture were analyzed for lymphokine concentration using commercially available ELISA kits and the values expressed as pg/ml for IL-4, IL-5 and γ-IFN, or as units per ml, for IL-2. Supernatants were analyzed after 24 h of culture (Initial) or alternatively, the cells were cultured for 8 days in the above forms of stimulation, the cells were recovered, washed, and then restimulated with their original treatment, and the supernatants analyzed after a further 24 h of stimulation (Restimulation). The values represent means of duplicate cultures.
Supernatants from the cell culture were analyzed for lymphokine concentration using commercially available ELISA kits and the values expressed as pg/ml for IL-4, IL-5 and γ-IFN. Supernatants were analyzed after 24 h of culture (Initial) or, alternatively, the cells were cultured for 8 days in the above forms of stimulation, and then restimulated, and the supernatants analyzed after a further 24 h period of stimulation (Restimulation). The values represent means of duplicate cultures.

CD28^+ T cells [5] = assay: Lymphokine secretion (IL-2, TNF-α/LT, IFN-γ, GM-CSF) by stimulated CD28+ T cells, with or without cyclosporine; format: cell-based, human; conditions: supernatant at 24 h; CSP 0.6 μg/ml where in label
CD28^+ T cells [6] = assay: Cell cycle analysis (S+G2+M), propidium iodide flow cytometry; format: cell-based, human; conditions: 48 h after stimulation
Procedure: In separate experiments, the relative levels of IL-2 for each of the culture conditions above were independently confirmed using a commercially available ELISA assay (Genzyme Corp., Boston, Mass.). TNF-α/LT levels were measured using a semi-automated L929 fibroblast lytic assay as previously described by Kunkel et al., J. Biol. Chem., 263:5380-5384 (1988). Units of TNF-α/LT were defined using an internal standard for TNF-α (Genzyme Corp., Boston Mass.). […] IFN-γ was measured by radioimmunoassay using a commercially available kit (Centocor, Malvern, Pa.). Units for IFN-γ were determined from a standard curve using ^125I-labeled human IFN-γ provided in the test kit. GM-CSF was detected by stimulation of proliferation of the human GM-CSF-dependent cell line AML-193, as described by Lange et al., Blood, 70:192-199 (1987), in the presence of neutralizing monoclonal antibodies to TNF-α and LT. The ^3H-thymidine uptake induced by 10 ng/ml of purified GM-CSF (Genetics Institute, Cambridge, Mass.) was defined as 100 U. Separate aliquots of cells were recovered 48 h after stimulation and assayed for the percentage of cells in late stages of the cell cycle (S+G2+M) by staining of cells with propidium iodide and analysis by flow cytometry as previously described by Thompson et al., Nature, 314:363-366 (1985). […]

Daudi = assay: Cytotoxicity of activated cells against Daudi; format: cell-based, human
Procedure: (§1) One lytic unit is equivalent to 20% lysis of 5×10^3 target cells per 1×10^6 effector cells as discussed in Press, H. F. et al., J. Clin. Immunol. 1:51-83 (1981). Various targets, including Daudi and K562, were tested.
In 5 different subjects, PBL were compared with T cells (E^+) in their ability to kill Daudi, K562, and BSB cells 8 days after being activated with OKT3. These experiments were performed in X-Vivo 10 supplemented with 5% human serum (HS). […]
Cytotoxicity induced by soluble or immobilized OKT3. In 7 experiments, cytotoxicity mediated by T cells after activation was compared with soluble or immobilized OKT3. […] These experiments were performed with E^+ cells in RPMI 1640 supplemented with 10% fetal bovine serum (FBS). Cytotoxicity was assessed 7 to 8 days after triggering with soluble (10 ng/ml) or immobilized (2 μg/ml) OKT3.
Either soluble OKT3 10 ng/ml(s) or immobilized OKT3 (coated with 2 μg/ml)(I) were added as indicated. […]

K562 = assay: Cytotoxicity of activated cells against K562; format: cell-based, human
Procedure: as §1
In 5 different subjects, PBL were compared with T cells (E^+) in their ability to kill Daudi, K562, and BSB cells 8 days after being activated with OKT3. These experiments were performed in X-Vivo 10 supplemented with 5% human serum (HS). The mean cytotoxicity in 5 normal subjects using PBL directed at Daudi, K562, and BSB were 15.0, 7.4, and 9.2 LU, respectively. In T cells from the same 5 subjects, the mean cytotoxicity directed at Daudi, K562, and BSB were 14.3, 7.7, and 9.3 LU, respectively.
(§2) Cytotoxicity as a function of in vitro time in cell culture. […] Cytotoxicity was a strong function of culture duration however, with <0.1, 24, 3.5, 0.5, 1.0 LU at 0, 8, 15, 22, and 29 days of culture. Similar results were found when Daudi was the target, with <0.01, 23, 5, 2, and 5 LU at 0, 8, 15, 22, and 29 days of culture.
Cytotoxicity induced by soluble or immobilized OKT3. In 7 experiments, cytotoxicity mediated by T cells after activation was compared with soluble or immobilized OKT3. Both methods induced cytotoxicity directed at Daudi and K562. Soluble OKT3 activated T cells mediated a mean cytotoxicity of 27 LU (SD-18) directed at Daudi and a mean cytotoxicity of 21 LU (SD-16) directed at K562. Immobilized OKT3 activated T cells mediated a mean cytotoxicity of 22 LU (SD-16) directed at Daudi and a mean cytotoxicity of 12 LU (SD-8) directed at K562. These experiments were performed with E^+ cells in RPMI 1640 supplemented with 10% fetal bovine serum (FBS). Cytotoxicity was assessed 7 to 8 days after triggering with soluble (10 ng/ml) or immobilized (2 μg/ml) OKT3.
(§3) Although the BMMNC population initially contained only 25% CD3^+ cells, proliferative and cytotoxic responses were excellent after 2 weeks of culture. […] In 4 experiments using normal bone marrow or autologous bone marrow, there was a median of 89-fold expansion of cells (range 18- to 173-fold) after 9 to 19 days of culture. Mean cytotoxicity directed at Daudi and K562 mediated by BMMNC stimulated with OKT3 was 5.5 LU (range 2-11) and 4.3 LU (range 2-8), respectively. […] Either soluble OKT3 10 ng/ml(s) or immobilized OKT3 (coated with 2 μg/ml)(I) were added as indicated.
(§4) Proliferative and cytotoxic responses from 3 patients were tested. […] Proliferation was assessed on day 3 of culture and cytotoxicity on day 7.

PBL, T cells or BMMNC = assay: Proliferation and expansion of PBL, T cells or BMMNC after OKT3 activation; format: cell-based, human; conditions: for Proliferation ^3H incorp.: day 3
Text: as §2, §3, §4

[7] = RESTIMULATION after 8 days, further 24 h
[8] = BMMNC, 14 days after activation, 50 IU/ml IL-2
[9] = E+ cells, 7 to 8 days after triggering, 7 experiments, listed as Immobilized OKT3
[10] = E+ cells, 7 to 8 days after triggering, 7 experiments, listed as Soluble OKT3
[11] = PBL, 5 normal subjects, 8 days after activation

`CO[C@H]1[C@@H](OC)C[C@H](C)[C@@H](OC)C2=CC(=O)C=C(NC(=O)/C(C)=C/C=C\[C@H](OC)[C@@H](OC(N)=O)/C(C)=C/[C@@H]1C)C2=O` [herbimycin A] was tested, and the “PMA plus ionomycin-stimulated IL-2 secretion” value ([1]; herbimycin A 1 μM) was “resistant” and the “Tyrosine phosphorylation induced by anti-CD28 mAb” value [2] was “nearly completely prevented”.
In the case of `CCCCCCCCCCCCCC(=O)O[C@@H]1[C@@H](C)[C@@]2(O)[C@@H](C=C(CO)C[C@]3(O)C(=O)C(C)=C[C@@H]23)[C@@H]2C(C)(C)[C@]12OC(C)=O` [PMA, phorbol myristate acetate], the “^3HTdR” value (CD28^+ T cells [3]; Dexamethasone 0 Nm) is reported as 5,000, the “^3HTdR” value (CD28^+ T cells [3]; Dexamethasone 25 Nm) is reported as 1,400 and the “^3H-thymidine incorporation” value (CD28^+ T cells [3]; cells cultured with the single agent only) is reported as “less than 150 cpm”. For the same compound, the “% INHIBIT” value (CD28^+ T cells [3]; inhibition of proliferation by dexamethasone) was 72%, the IFN (CD28^+ T cells [4]; INITIAL, 24 h of culture) was 152 pg/mL and the IL-2 (CD28^+ T cells [4]; INITIAL, 24 h of culture) was “.07 U/ml”. For the same compound, the IL-4 (CD28^+ T cells [4]; INITIAL, 24 h of culture) was <1 pg/mL, the IL-5 (CD28^+ T cells [4]; INITIAL, 24 h of culture) was <1 pg/mL and the IFN (CD28^+ T cells [4]; [7]) was <1 pg/mL. The IL-2 (CD28^+ T cells [4]; [7]) was 0.6 U/ml, the IL-4 (CD28^+ T cells [4]; [7]) was <1 pg/mL and the IL-5 (CD28^+ T cells [4]; [7]) was <1 pg/mL. The IL-2 [1] was < 10 U/ml, the IFN-γ (CD28^+ T cells [5]) was 0 U/ml and the IL-2 (CD28^+ T cells [5]) was <2 U/ml. The TNF-α/LT (CD28^+ T cells [5]) was 0 U/ml and the “S + G2 + M” value (CD28^+ T cells [6]) was 5.5%.
In the case of “OKT3: anti-CD3 mAb OKT3 (IgG2a), soluble or immobilized”, the “mean cytotoxicity directed at Daudi” value (Daudi; [8]) is reported as 5.5 LU, the “mean cytotoxicity directed at Daudi” value (Daudi; [9]) is reported as 22 LU and the “mean cytotoxicity directed at Daudi” value (Daudi; [10]) is reported as 27 LU. The “mean cytotoxicity directed at Daudi” value (Daudi; [11]) was 15.0 LU, the “mean cytotoxicity directed at Daudi” value (Daudi; T cells (E+), same 5 subjects) was 14.3 LU and the “mean cytotoxicity directed at K562” value (K562; [8]) was 4.3 LU. For the same compound, the “mean cytotoxicity directed at K562” value (K562; [9]) was 12 LU, the “mean cytotoxicity directed at K562” value (K562; [10]) was 21 LU and the “mean cytotoxicity directed at K562” value (K562; [11]) was 7.4 LU. For the same compound, the “mean cytotoxicity directed at K562” value (K562; T cells (E+), same 5 subjects) was 7.7 LU, the “Proliferation ^3H incorp.” value (PBL, T cells or BMMNC; Bone Marrow #171, AML, Relapsed) was 23,479 cpm and the “Proliferation ^3H incorp.” value (PBL, T cells or BMMNC; PBL P#632, non-Hodgkins lymphoma, pre-transplant) was 58,670 cpm. For the same compound, the “Proliferation ^3H incorp.” value (PBL, T cells or BMMNC; PBL P#635, Hodgkins lymphoma, pre-transplant) was 27,758 cpm and the “median expansion of cells” value (PBL, T cells or BMMNC; normal or autologous bone marrow, 4 experiments, 9 to 19 days) was 89 fold.
In the case of `C[C@H](CCC(=O)O)C[C@H](C)C[C@H](C)C(=O)/C=C(\O)[C@H](C)C[C@H](C)C/C=C/[C@@H](C)[C@@H](O)[C@@H](C)[C@@H](O)C[C@@H]1CC[C@@](C)([C@H]2CC[C@@](C)([C@@H](C)O)O2)O1` [Ionomycin, ionomycin], the IL-2 [1] is reported as < 10 U/ml, the IFN-γ (CD28^+ T cells [5]) is reported as 0 U/ml and the IL-2 (CD28^+ T cells [5]) is reported as <2 U/ml. For the same compound, the TNF-α/LT (CD28^+ T cells [5]) was 0 U/ml and the “S + G2 + M” value (CD28^+ T cells [6]) was 6.6%.
